Here are results for four compounds from patent publication US20240066155A1, “DUAL MODE RADIOTRACER AND -THERAPEUTICS” (priority 2021, published 2024).

The conditions of data set [1]: literature, Wängler et al. Bioconjug Chem 2010; cited from earlier work.
The next data set concerns the target T1, PSMA (Homo sapiens, UniProt Q04609).
T1 construct: endogenous in cells; host or cells: LNCaP cells
The data set can be described thus: Competitive binding studies on LNCaP cells vs ([125I]BA)KuE (affinity, IC50). Conditions: 1 h, 4° C., natLu complexes. As for the experimental part:
(§1) Competitive binding studies were determined on LNCaP cells (1.5×10^5 cells in 1 mL/well) after incubation at 4° C. for 1 h, using (((S)-1-carboxy-5-(4-([^125I]iodo)benzamido)pentyl)carbamoyl)-L-glutamic acid ([^125I]BA)KuE; 0.2 nM/well) as reference radioligand (n=3). Internalization studies of the radiolabeled ligands (1.0 nM/well) were performed on LNCaP cells (1.25×10^5 cells in 1 mL/well) at 37° C. for 1 h and accompanied by ([^125I]BA)KuE (0.2 nM/well), as reference. Data were corrected for non-specific binding and normalized to the specific internalization observed for the reference (n=3). A detailed description of the experimental procedures was previously published (Wurzer A, et al. J Nucl Med. 2020; 61: 735-742).

The subject of another data set is LNCaP cells. The data set can be described thus: PSMA-mediated internalization into LNCaP cells. Format: cell-based. Conditions: 1 h, 37° C., percentage of reference ligand ([125I]BA)KuE, n=3. As for the experimental part: as §1
Data set [2] in a line: Lipophilicity, n-octanol/PBS (pH 7.4) distribution. The note with it: n-octanol/PBS pH 7.4, 177Lu-labeled, n=6. Type of data set: physicochemical. As for the experimental part:
Approximately 1 MBq of the ^177Lu-labeled PSMA ligand was dissolved in 1 mL of a 1:1 mixture (v/v) of phosphate-buffered saline (PBS, pH 7.4) and n-octanol (n=6). After vigorous mixing of the suspension for 3 min, the vial was centrifuged at 15000×g for 3 min and 100 μL aliquots of both layers were measured in a γ-counter. Finally, the ratio of the radioactivity detected in the n-octanol sample and the PBS buffer was calculated and expressed as distribution ratio log D7.4.

The target of a further data set is T2, human serum albumin (Homo sapiens, UniProt P02768).
T2 construct: purchased Biowest, Nuaillé, France
T2 sequence (P02768 25-609): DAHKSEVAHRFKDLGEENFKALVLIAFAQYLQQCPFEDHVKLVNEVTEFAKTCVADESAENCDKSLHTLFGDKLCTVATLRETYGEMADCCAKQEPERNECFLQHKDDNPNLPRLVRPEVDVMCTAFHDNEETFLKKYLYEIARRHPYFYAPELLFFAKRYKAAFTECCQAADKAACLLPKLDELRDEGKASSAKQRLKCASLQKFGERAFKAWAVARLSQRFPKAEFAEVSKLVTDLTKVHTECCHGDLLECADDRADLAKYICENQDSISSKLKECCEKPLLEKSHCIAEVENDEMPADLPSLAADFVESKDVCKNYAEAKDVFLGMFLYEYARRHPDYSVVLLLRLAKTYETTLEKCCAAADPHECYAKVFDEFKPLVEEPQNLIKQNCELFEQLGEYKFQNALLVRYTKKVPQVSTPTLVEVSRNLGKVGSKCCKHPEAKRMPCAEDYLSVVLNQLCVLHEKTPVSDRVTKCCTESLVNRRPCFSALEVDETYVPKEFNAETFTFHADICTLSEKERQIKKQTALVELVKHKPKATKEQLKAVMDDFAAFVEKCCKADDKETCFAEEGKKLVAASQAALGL
The data set can be described thus: Binding to human serum albumin by albumin mediated size exclusion chromatography (AMSEC). Format: in vitro ADME. The note with it: size exclusion chromatography with HSA in the mobile phase, 177Lu-labeled. As for the experimental part:
Binding of ^177Lu-labeled ligands to HSA was assessed by albumin mediated size exclusion chromatography (AMSEC). A gel filtration size exclusion column (Superdex 75 Increase 10/300 GL, GE Healthcare, Uppsala, Sweden) was used with HSA buffer at physiological concentration (700 μM, Biowest, Nuaillé, France) as mobile phase (constant flow rate of 0.8 mL/min at room temperature). For calibration purposes, a commercially available set of proteins (GE Healthcare, Buckinghamshire, UK) was used. Under these chromatographic conditions, the retention time of a radioligand (1.0 MBq, 10-20 GBq/μmol) depends on the extent of HSA/ligand interactions and thus, by means of the calibration with the aforementioned set of proteins, can be translated into an AMW (expressed in kDa) as a parameter allowing to quantify the extent of HSA binding. The detection window ranges between 2.3 kDa ([^18F]Fluoride; no HSA interaction) and 70.2 kDa (experimental molecular weight of HSA; maximum HSA interaction).

The test system of data set [3] is LNCaP tumor-bearing male CB-17 SCID mice. The data set can be described thus: Ex vivo biodistribution in LNCaP tumor-bearing CB-17 SCID mice. The note with it: 24 h p.i.; for Tumor uptake / Activity accumulation tumor: LNCaP tumor; for Tumor-to-organ ratio adrenals / Tumor-to-organ ratio blood / Tumor-to-organ ratio bone / Tumor-to-organ ratio heart / Tumor-to-organ ratio intestine / Tumor-to-organ ratio kidney / Tumor-to-organ ratio liver / Tumor-to-organ ratio lung / Tumor-to-organ ratio muscle / Tumor-to-organ ratio pancreas / Tumor-to-organ ratio parotid gl. / Tumor-to-organ ratio spleen / Tumor-to-organ ratio stomach / Tumor-to-organ ratio submand. gl.: n=5, mean of ratios per mouse; for Activity accumulation adrenals / Activity accumulation blood / Activity accumulation bone / Activity accumulation heart / Activity accumulation intestine / Activity accumulation kidney / Activity accumulation liver / Activity accumulation lung / Activity accumulation muscle / Activity accumulation pancreas / Activity accumulation parotid gl. / Activity accumulation spleen / Activity accumulation stomach / Activity accumulation submand. gl. / Activity accumulation tumor: n=5, mean, complete dataset. As for the experimental part: All animal experiments were conducted in accordance with general animal welfare regulations in Germany (German animal protection act, as amended on 18 May 2018, Art. 141 G v. 29 Mar. 2017 I 626, approval no. 55.2-1-54-2532-71-13) and the institutional guidelines for the care and use of animals. LNCaP tumor xenografts were established in 6-8 weeks old male CB-17 SCID mice as described previously (Wurzer A, et al. J Nucl Med. 2020; 61: 735-742). Biodistribution Studies. The ^177Ludabeled PSMA inhibitors (2-5 MBq; 0.1 nmol) were injected under isoflurane anesthesia into the tail vein of LNCaP tumor-bearing male CB-17 SCID mice that were sacrificed 24 h post injection (p.i.) (n=4-5). Selected organs were removed, weighed, and measured in a counter. All rhPSMA ligands were evaluated in mice during the same time period (Q1/2020), whereas ^177Ludabeled PSMA-617 and PSMA I&T (Wirtz M, et al. EJNMMI Res. 2018; 8: 84) were assessed previously using the identical cell line, mouse model and experimental procedure.

Several values for one entry are separate records, joined by “and”; a condition that tells them apart may be missing. Equal entries are not always repeated.

A word on the IC50: it is the concentration needed to halve the response being measured. Read a high IC50 as a need for much substance.

T1 sequence (Q04609 whole entry): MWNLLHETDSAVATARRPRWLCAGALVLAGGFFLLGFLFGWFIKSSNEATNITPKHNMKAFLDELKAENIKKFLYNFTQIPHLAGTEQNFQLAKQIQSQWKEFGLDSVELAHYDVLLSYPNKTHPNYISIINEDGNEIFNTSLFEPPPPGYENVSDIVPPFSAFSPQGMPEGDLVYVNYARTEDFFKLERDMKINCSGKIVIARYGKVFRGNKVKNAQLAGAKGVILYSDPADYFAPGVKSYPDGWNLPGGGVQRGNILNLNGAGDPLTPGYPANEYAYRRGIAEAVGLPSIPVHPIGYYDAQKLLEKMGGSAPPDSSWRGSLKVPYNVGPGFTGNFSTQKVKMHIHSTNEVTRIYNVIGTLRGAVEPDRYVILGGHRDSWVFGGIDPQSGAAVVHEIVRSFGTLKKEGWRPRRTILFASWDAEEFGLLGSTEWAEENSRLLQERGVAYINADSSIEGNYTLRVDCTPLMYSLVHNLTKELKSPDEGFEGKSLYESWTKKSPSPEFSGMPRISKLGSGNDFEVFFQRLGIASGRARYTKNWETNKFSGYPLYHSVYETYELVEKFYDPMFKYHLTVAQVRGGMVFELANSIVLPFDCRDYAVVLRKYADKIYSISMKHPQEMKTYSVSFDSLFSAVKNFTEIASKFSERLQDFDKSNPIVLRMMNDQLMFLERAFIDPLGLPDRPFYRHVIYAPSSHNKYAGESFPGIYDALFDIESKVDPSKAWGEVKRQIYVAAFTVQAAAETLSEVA

Take SIFA-Asn(AcNH-β-Glc)-Tyr^3-octreotate: in data set [1], the “log P(ow)” value is 1.23.
Turning to “SIFA-Asn(AcNH-β-Glc)-PEG-Tyr^3-octreotate”, the “log P(ow)” value in data set [1] is given as 0.96.
In turn, `O=C([O-])CN1CCN(CC(=O)[O-])CCN(C(CCC(=O)N[C@H](Cc2ccc(O)c(I)c2)C(=O)N[C@H](Cc2ccccc2)C(=O)N[C@H](CCCCNC(=O)CCCCCCC(=O)NCCCC[C@H](NC(=O)N[C@@H](CCC(=O)O)C(=O)O)C(=O)O)C(=O)O)C(=O)O)CCN(CC(=O)[O-])CC1.[Lu+3]` (stereo partly shown) [[^177Lu]PSMA I&T] gave a half-maximal inhibitory concentration (IC50) on PSMA (n=3) of 4.17 ± 0.78 nM. The compound further yielded an IC50 on PSMA (n=3, listed as [^natLu]PSMA I&T) of 4.2 ± 0.8 nM. In addition, the “Internalization [% IBA-KuE]” value in the data set with LNCaP cells is 145±14 % IBA-KuE and 145.4 ± 13.8 % IBA-KuE. The same compound registered a logD7.4 in data set [2] of −4.1 ± 0.1. The “MWapp [kDa] (apparent molecular weight, AMW; HSA binding)” value on human serum albumin turned out to be 5.3 kDa. In data set [3], the “Tumor uptake” value is 4.1±1.1 % ID/g, the Tumor-to-organ ratio adrenals is on record as 5.62, the Tumor-to-organ ratio blood is reported as 1288 and the Tumor-to-organ ratio bone came to 358.26. Besides, in data set [3], the Tumor-to-organ ratio heart is 366.06, the Tumor-to-organ ratio intestine is on record as 191.31, the Tumor-to-organ ratio kidney was determined as 0.6 and the Tumor-to-organ ratio liver was 155.09. In data set [3], the Tumor-to-organ ratio lung worked out at 65.08, the Tumor-to-organ ratio muscle is 1964.92, the Tumor-to-organ ratio pancreas was determined as 336.33 and the “Tumor-to-organ ratio parotid gl.” value is given as 63.21. Besides, in data set [3], the Tumor-to-organ ratio spleen was 9.06, the Tumor-to-organ ratio stomach came out at 236.69, the “Tumor-to-organ ratio submand. gl.” value amounted to 136.76 and the Activity accumulation adrenals is given as 1.3590 % ID/g. Also, in data set [3], the Activity accumulation blood amounted to 0.0061 % ID/g, the Activity accumulation bone stood at 0.0209 % ID/g, the Activity accumulation heart was 0.0208 % ID/g and the Activity accumulation intestine turned out to be 0.0507 % ID/g. In addition, in data set [3], the Activity accumulation kidney is reported as 15.9±12.0 % ID/g, the Activity accumulation liver came to 0.0553 % ID/g, the Activity accumulation lung worked out at 0.1138 % ID/g and the Activity accumulation muscle worked out at 0.0051 % ID/g. Moreover, in data set [3], the Activity accumulation pancreas is reported as 0.0295 % ID/g, the “Activity accumulation parotid gl.” value amounted to 0.1346 % ID/g, the Activity accumulation spleen was found to be 1.2047 % ID/g and the Activity accumulation stomach stood at 0.0326 % ID/g. For the same compound, in data set [3], the “Activity accumulation submand. gl.” value came to 0.0581 % ID/g and the Activity accumulation tumor was 7.5780 % ID/g. Further, in data set [3] (listed as [^177Lu] PSMA-I&T), the Tumor-to-organ ratio blood was found to be 1288.54 and the Tumor-to-organ ratio kidney was determined as 0.61. This compound showed an Activity accumulation kidney in data set [3] (listed as [^177Lu]PSMA-I&T) of 15.8527 % ID/g.
On PSMA (n=3), `CC(C)(C)[Si]([19F])(c1ccc(C(=O)NC[C@@H](NC(=O)CN2CCN(CC(=O)O)CCN(CC(=O)O)CCN(CC(=O)O)CC2)C(=O)N[C@H](CCCCNC(=O)CCC(=O)NCCC[C@@H](NC(=O)CC[C@H](NC(=O)N[C@@H](CCC(=O)O)C(=O)O)C(=O)O)C(=O)O)C(=O)O)cc1)C(C)(C)C` [[^177Lu, ^19F]rhPSMA-10.1, metal not drawn] registered an IC50 of 2.76 ± 0.51 nM. Further, the “Internalization [% IBA-KuE]” value in the data set on LNCaP cells came to 177.4 ± 14.6 % IBA-KuE. For the same compound, the logD7.4 in data set [2] is −3.8 and −3.78 ± 0.06. Further, the “MWapp [kDa] (apparent molecular weight, AMW; HSA binding)” value at human serum albumin stood at 25.1 kDa. Moreover, in data set [3], the “Kidney uptake as percentage of that of [177Lu, 19F]rhPSMA-7.3” value turned out to be 20%; the “Tumor-to-blood ratio, times higher compared to [177Lu, 19F]rhPSMA-7.3” value came out at 2 times; the “Tumor-to-blood ratio, times higher compared to [177Lu]PSMA-617” value stood at 7 times; the “Tumor uptake” value turned out to be 9.8±0.3 % ID/g. In data set [3], the Tumor-to-organ ratio adrenals is recorded as 137.57, the Tumor-to-organ ratio blood was determined as 9117, the Tumor-to-organ ratio bone came to 389.88 and the Tumor-to-organ ratio heart was found to be 641.37. In data set [3], the Tumor-to-organ ratio intestine came to 250.87, the Tumor-to-organ ratio kidney is on record as 5.5, the Tumor-to-organ ratio liver was 72.52 and the Tumor-to-organ ratio lung is given as 404.28. Further, in data set [3], the Tumor-to-organ ratio muscle was found to be 2431.90, the Tumor-to-organ ratio pancreas came to 797.72, the “Tumor-to-organ ratio parotid gl.” value is given as 206.18 and the Tumor-to-organ ratio spleen turned out to be 63.66. In data set [3], the Tumor-to-organ ratio stomach is given as 351.52, the “Tumor-to-organ ratio submand. gl.” value was 344.45, the Activity accumulation adrenals amounted to 0.0983 % ID/g and the Activity accumulation blood was determined as 0.0019 % ID/g. In data set [3], this compound registered an Activity accumulation bone of 0.0298 % ID/g, an Activity accumulation heart of 0.0192 % ID/g, an Activity accumulation intestine of 0.0642 % ID/g and an Activity accumulation liver of 0.1631 % ID/g. Besides, in data set [3], the Activity accumulation lung turned out to be 0.0346 % ID/g, the Activity accumulation muscle was found to be 0.0053 % ID/g, the Activity accumulation pancreas was 0.0155 % ID/g and the “Activity accumulation parotid gl.” value was found to be 0.0551 % ID/g. Also, in data set [3], the Activity accumulation spleen was 0.1828 % ID/g, the Activity accumulation stomach stood at 0.0388 % ID/g, the “Activity accumulation submand. gl.” value was found to be 0.0338 % ID/g and the Activity accumulation tumor stood at 11.5563 % ID/g. In addition, in data set [3] (listed as [^177Lu]rhPSMA-10.1), the Tumor-to-organ ratio blood was 9117.20, the Tumor-to-organ ratio kidney is recorded as 5.52 and the Activity accumulation kidney came out at 2.4219 % ID/g.
